Results published in PMC5974124, “Equilibrium Thermodynamics, Formation, and Dissociation Kinetics of Trivalent Iron and Gallium Complexes of Triazacyclononane-Triphosphinate (TRAP) Chelators: Unraveling the Foundations of Highly Selective Ga-68 Labeling” (Frontiers in Chemistry, 2018).
Like-named read-outs stand apart in the source and are kept apart here. Marks after values point to notes of the source that are not given here.

What was measured:
[1] = 25°C, cited from earlier work
[2] = cited from earlier work; for log β3OH hydrolysis constant: M(OH)3, ref Baes and Mesmer; for log β3OH hydrolysis constant / log β2OH hydrolysis constant / log β1OH hydrolysis constant: [1976]; for log β2OH hydrolysis constant: [M(OH)2]^+; for log β1OH hydrolysis constant: [M(OH)]^2+
[3] = 25°C, cited from earlier work; remark: listed apart in the source
[4] = Fe^III, 25°C, cited from earlier work
[5] = Stability and protonation constants of Fe^III complexes (pH-potentiometry, spectrophotometry, competition with Bha^−); format: physicochemical; conditions: 0.15 M NaNO3, 25°C
Description: Stability constant of [Fe(Bha)]^2+ complex was determined by spectrophotometry, studying the Fe^III-HBha systems at the absorption band of Fe^III-complex over the wavelength range of 400–800 nm in two sets of experiments. Individual samples were prepared in the first series in which the concentrations of Fe^III and HBha was constant 0.2 and 2.0 mM, while that of the H^+ was varied between […] (eight samples, Figure S1). The H^+ concentration in the samples was adjusted by addition of calculated amounts of 2.0 M HNO3. The ionic strength was constant in the samples with [H^+] < 0.15 M ([H^+]+[Na^+] = 0.15 M). Samples were kept at 25°C for a week. Absorbance values were determined at 11 wavelengths (400, 415, 430, 445, 460, 475, 490, 505, 520, 535, and 550 nm). In the second set, spectrophotometric titrations were done with samples containing HBha ligand in 2.0 mM concentration, whereas the concentration of Fe^III was varied between 0.1–0.3 mM (Figures S2–S4). The pH of the samples was adjusted using concentrated NaOH and HNO3 solutions in the pH range 1.7–11.0 (0.15 M NaNO3 and 25°C). For calculation of the equilibrium constants, the best fit of the absorbance–pH data was obtained by assuming formation of [Fe(Bha)]^2+, [Fe(Bha)2]^+, [Fe(Bha)3], and [Fe(Bha)2(OH)2]^− species (Figure S5). The molar absorptivity of [Fe(Bha)]^2+, [Fe(Bha)2]^+, [Fe(Bha)3] and [Fe(Bha)2(OH)2]^− species were also determined at the same 11 wavelengths in these experiments (Figure S6).
The stability constant of the [Fe(TRAP)]^3− complex has been determined by spectrophotometry, using competition reactions between HTRAP^5− and Bha^− for Fe^III at pH = 10.0. Concentration of [Fe(TRAP)]^3− was 0.2 mM, while that of HBha was varied between 0.0 and 1.5 mM (6 samples). The samples were kept at 25°C for 2 weeks. Absorbance values of the Fe^III-HTRAP^5−-Bha^− systems were determined at 11 wavelengths (400, 415, 430, 445, 460, 475, 490, 505, 520, 535, and 550 nm). The molar absorptivities of [Fe(TRAP)]^3− and [Fe(TRAP)OH]^4− in equilibrium solutions were determined by recording the absorption spectra of 0.1, 0.2, and 0.3 mM solution of [Fe(TRAP)]^3− in the pH range 6.0–12.0. The molar absorptivity of [Fe(Bha)2(OH)2]^− species was determined in the separate experiments. Absorbance and pH values were determined in the samples after equilibration (the time needed to reach the equilibria was determined by spectrophotometry). Spectrophotometric measurements were done using 1.0 cm cells with a Cary 1E spectrophotometer at 25°C. Protonation constants of the Fe^III complex formed with TRAP^6− were determined by direct pH-potentiometric titration at 1:1 metal to ligand ratios (both concentrations were 0.002 M). For calculation of the logKMHiL values, the mL base–pH data used were measured in the pH range 1.7 −12.0.
For pH measurements and titrations, a Metrohm 785 DMP Titrino titration workstation and a Metrohm-6.0233.100 combined electrode were used. Equilibrium measurements were carried out at a constant ionic strength (0.15 M NaNO3 or NaCl) in 6 mL samples at 25°C. Solutions were stirred and continuously purged with N2. Titrations were performed in a pH range of 1.7–12.0. […] For calculation of [H^+] from measured pH values, the method proposed by Irving et al. was used (Irving et al., [1967]). […] Differences between the measured (pHread) and calculated pH (–log[H^+]) values were used to obtain the equilibrium H^+ concentration from the pH values, measured in the titration experiments. […]

[6] = Protonation constants of ligands by pH-potentiometry; format: physicochemical; conditions: 0.15 M NaNO3, 25°C
Description: For determining the protonation constants of H6TRAP and H3NOTA ligands three parallel pH-potentiometric titration were made with 0.2 M NaOH in 0.002 M ligand solutions.
For pH measurements and titrations, a Metrohm 785 DMP Titrino titration workstation and a Metrohm-6.0233.100 combined electrode were used. Equilibrium measurements were carried out at a constant ionic strength (0.15 M NaNO3 or NaCl) in 6 mL samples at 25°C. Solutions were stirred and continuously purged with N2. Titrations were performed in a pH range of 1.7–12.0. KH-phthalate (pH = 4.005) and borax (pH = 9.177) buffers were used to calibrate the pH meter. For calculation of [H^+] from measured pH values, the method proposed by Irving et al. was used (Irving et al., [1967]). A 0.01 M HNO3 or HCl solution was titrated with the standardized NaOH solution in the presence of 0.15 M NaNO3 or NaCl. Differences between the measured (pHread) and calculated pH (–log[H^+]) values were used to obtain the equilibrium H^+ concentration from the pH values, measured in the titration experiments. For equilibrium calculations, the stoichiometric water ionic product (pKw) is also needed to calculate [H^+] values in basic conditions. The VNaOH–pHread data pairs of the HNO3–NaOH or HCl–NaOH titration obtained in the pH range 10.5–12.0 have been used to calculate the pKw value (pKw = 13.84). For calculation of the equilibrium constants, the program PSEQUAD (Zekany and Nagypal, [1985]) was used. The standard deviation (SD) of the equilibrium parameters calculated by the program PSEQUAD is defined by Equation (1)
Protonation equilibria of the TRAP^6−, NOTA^3− and Bha^− ligands were studied by pH-potentiometry. The protonation constants (log KiH ) of ligands defined by Equation (3) are listed in Table 1 (standard deviations are shown in parentheses). The charges of ligands and complexes will be indicated when it is necessary.
(3) KiH=[HiL]/[Hi−1L][H^+] i=0,1,2…6

[7] = design: method as in Brucher and Sherry, [1990]; conditions: 25°C, ref Brucher and Sherry, [1990]; cited from earlier work
[8] = design: method as in Notni et al., [2010]; Baranyai et al., [2015]; conditions: Zn^II, ref Notni et al., [2010]; Baranyai et al., [2015]; cited from earlier work
[9] = 0.1 M KCl, ref Clarke and Martell, [1991]
[10] = 0.1 M Me4NCl, ref Drahos et al., [2011]
[11] = 0.15 M NaCl, ref Baranyai et al., [2015]
[12] = Ga^III, 0.1 M Me4NCl, ref Simecek et al., [2012]
[13] = 0.2 M KCl, ref Farkas et al., [1998]
[14] = ref Baes and Mesmer, listed as Fe^3+

For O=C([O-])CN(CCN(CC(=O)[O-])Cc1ccccc1[O-])Cc1ccccc1[O-].[Ga+3] [[Ga(HBED)]^−], the “logKGa(HBED) stability constant” value ([1]; 0.1 M KCl, ref Ma et al., [1994]) is listed as 38.51.
In the case of [Ga+3] [Ga^III], the “log β3OH hydrolysis constant” value [2] is listed as −8.2, the “log β2OH hydrolysis constant” value ([2]; ref Baes and Mesmer) is listed as −5.92 and the “log β1OH hydrolysis constant” value ([2]; ref Baes and Mesmer) is listed as −2.97.
For O=C(O)CN1CCN(CC(=O)O)CCN(CC(=O)O)CC1 [NOTA^3−, 1,4,7-triazacyclononane-1,4,7-triacetic acid], the “log K1H protonation constant” value [3, 9] is given as 11.98, the “log K2H protonation constant” value [3, 9] is given as 5.65 and the “log K3H protonation constant” value [3, 9] is given as 3.18. For the same molecule, the “log K1H protonation constant” value [3, 10] was 13.17, the “log K2H protonation constant” value [3, 10] was 5.74 and the “log K3H protonation constant” value [3, 10] was 3.22. The “log K4H protonation constant” value [3, 10] was 1.96, the “Σlog KiH total ligand basicity” value [3, 10] was 24.09 and the “log K1H protonation constant” value [3, 11] was 12.16. The “log K2H protonation constant” value [3, 11] was 5.75, the “log K3H protonation constant” value [3, 11] was 3.18 and the “log K4H protonation constant” value [3, 11] was 1.90. The “Σlog KiH total ligand basicity” value ([3]; 0.15 M NaCl, for TRAP^6− log K3H, K4H, K5H not considered, ref Baranyai et al., [2015]) was 22.99, the “logK ML stability constant” value [4, 9] was 28.3 and the “logK M(L)OH” value [5] was 9.12(4)^e. For the same molecule, the “log K1H protonation constant” value [6] was 11.94(2), the “log K2H protonation constant” value [6] was 5.71(3) and the “log K3H protonation constant” value [6] was 3.14(3). The “log K4H protonation constant” value [6] was 1.60(2), the “Σlog KiH total ligand basicity” value ([6]; for TRAP^6− log K3H, K4H, K5H not considered) was 22.39 and the “logK M(L)OH” value [1, 12] was 9.83. The “logK MHL protonation constant of complex” value [1, 12] was 0.9 and the “logK ML stability constant” value [1, 12] was 29.60.
For O=C(NO)c1ccccc1 [Bha^−, benzhydroxamic acid], the “log K1H protonation constant” value [3, 13] is listed as 8.69, the “logK ML2” value [4, 13] is listed as 10.12 and the “logK ML3” value [4, 13] is listed as 7.60. For the same molecule, the “logK ML stability constant” value [4, 13] was 11.08, the “logK ML2” value [5] was 9.03(2) and the “logK ML3” value [5] was 7.41(3). The “logK ML stability constant” value [5] was 10.80(2), the “logβFeL2(OH)2” value [5] was 6.68(5) and the “log K1H protonation constant” value [6] was 8.53(3).
For O=C([O-])CN1CCN(CC(=O)[O-])CCN(CC(=O)[O-])CC1.[Gd+3] [[Gd(NOTA)]], the “kOH formation rate constant” value [7] is given as 7.1e+07 M⁻¹ s⁻¹.
In the case of [Fe+3] [Fe^III], the “log β3OH hydrolysis constant” value [2] is listed as −12.0, the “log β3OH hydrolysis constant” value ([2]; listed as Fe^3+) is listed as “–12.0” and the “logβ4^OH hydrolysis constant” value ([2]; [Fe(OH)4]^-, ref Baes and Mesmer, 1976) is listed as “–21.6”. The “log β2OH hydrolysis constant” value ([2]; ref Baes and Mesmer) was −5.67, the “log β2OH hydrolysis constant” value [2, 14] was “–5.67” and the “log β1OH hydrolysis constant” value ([2]; ref Baes and Mesmer) was −2.19. For the same molecule, the “log β1OH hydrolysis constant” value [2, 14] was “–2.19”.
For O=C([O-])CCP(=O)(O)CN1CCN(CP(=O)(O)CCC(=O)[O-])CCN(CP(=O)(O)CCC(=O)O)CC1.[Zn+2] [[Zn(TRAP)]^4−], the logKML stability constant [8] is listed as 16.07.
For O=C([O-])CN1CCN(CC(=O)[O-])CCN(CC(=O)[O-])CC1.[Er+3] [[Er(NOTA)]], the “kOH formation rate constant” value [7] is listed as 5.5e+07 M⁻¹ s⁻¹.
In the case of O=C([O-])CN1CCN(CC(=O)[O-])CCN(CC(=O)[O-])CC1.[Ce+3] [[Ce(NOTA)]], the “kOH formation rate constant” value [7] is given as 6.3e+07 M⁻¹ s⁻¹.
